Results from the supplement of paper PMC12076712.

Biological target: T1, MASTL (UniProt Q96GX5)
T1 sequence (whole entry): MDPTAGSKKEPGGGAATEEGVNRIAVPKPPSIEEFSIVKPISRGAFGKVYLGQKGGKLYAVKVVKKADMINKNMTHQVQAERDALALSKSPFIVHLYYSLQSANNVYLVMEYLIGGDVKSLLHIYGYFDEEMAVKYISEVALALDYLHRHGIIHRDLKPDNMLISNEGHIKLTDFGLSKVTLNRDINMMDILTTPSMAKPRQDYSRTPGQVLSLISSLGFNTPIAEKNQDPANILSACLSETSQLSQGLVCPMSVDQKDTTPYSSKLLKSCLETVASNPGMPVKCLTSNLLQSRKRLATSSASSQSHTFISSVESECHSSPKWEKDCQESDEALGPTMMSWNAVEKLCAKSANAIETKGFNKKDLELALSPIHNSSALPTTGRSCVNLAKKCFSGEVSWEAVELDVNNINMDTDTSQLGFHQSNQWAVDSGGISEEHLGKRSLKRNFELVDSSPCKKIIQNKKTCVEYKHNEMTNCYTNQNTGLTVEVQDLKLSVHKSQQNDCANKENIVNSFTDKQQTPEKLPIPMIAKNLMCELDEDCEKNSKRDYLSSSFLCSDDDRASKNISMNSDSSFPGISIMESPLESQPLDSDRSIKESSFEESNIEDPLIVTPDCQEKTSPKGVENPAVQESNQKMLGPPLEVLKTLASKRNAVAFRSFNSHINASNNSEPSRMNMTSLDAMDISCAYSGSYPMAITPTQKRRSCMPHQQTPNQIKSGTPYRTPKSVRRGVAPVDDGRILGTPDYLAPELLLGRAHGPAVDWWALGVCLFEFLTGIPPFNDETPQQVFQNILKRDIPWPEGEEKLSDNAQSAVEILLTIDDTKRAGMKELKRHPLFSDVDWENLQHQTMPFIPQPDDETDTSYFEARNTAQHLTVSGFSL
Assay: pIC50, competition of probe 3 labelling in live cells
Settings: cell material: Jurkat cells

CC#CC(=O)Nc1ccc2ncnc(Nc3cccc(Br)c3)c2c1 [EKI-785]
pIC50: < 4.52
